Reference: publication PMC12469827, “Targeting G6PD with Benzimidazole and Thiazole Derivatives Suppresses SIRT 2 and VEGF Expression and Induces Cytotoxicity in Glioma Cells” (International Journal of Molecular Sciences, 2025)

What was measured:
[1] = biological target: T1, Glucose-6-Phosphate Dehydrogenase (G6PD) (Homo sapiens, UniProt P11413); experiment: residual activity of purified recombinant enzyme (NADPH at […] nm) after […] h incubation; supported by CD and intrinsic fluorescence; format: biochemical
[2] = biological target: T1, Glucose-6-Phosphate Dehydrogenase (G6PD); experiment: residual activity of purified recombinant enzyme (NADPH at […] nm) after […] h incubation; supported by intrinsic fluorescence (minimal CD change); format: biochemical

T1 sequence (P11413 2-515): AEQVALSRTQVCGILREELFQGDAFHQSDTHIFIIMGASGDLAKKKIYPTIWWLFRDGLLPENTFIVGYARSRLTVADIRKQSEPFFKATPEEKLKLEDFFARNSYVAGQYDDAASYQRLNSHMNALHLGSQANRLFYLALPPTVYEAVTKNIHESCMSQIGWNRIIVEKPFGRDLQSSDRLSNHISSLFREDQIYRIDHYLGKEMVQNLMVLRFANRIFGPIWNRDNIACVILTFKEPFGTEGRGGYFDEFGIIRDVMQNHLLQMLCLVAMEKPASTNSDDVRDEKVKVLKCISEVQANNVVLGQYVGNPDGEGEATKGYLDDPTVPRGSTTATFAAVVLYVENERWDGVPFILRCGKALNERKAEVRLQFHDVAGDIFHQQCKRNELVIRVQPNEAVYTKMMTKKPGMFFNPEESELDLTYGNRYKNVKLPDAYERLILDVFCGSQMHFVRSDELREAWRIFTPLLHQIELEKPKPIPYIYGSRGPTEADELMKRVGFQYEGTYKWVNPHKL

## O=C(Nc1ccc(Cl)cc1)Nc1ncc([N+](=O)[O-])s1 [CNZ-3]
[1]
  IC50: 121 µM

## O=[N+]([O-])c1ccc2nc([S+]([O-])Cc3ccccn3)[nH]c2c1 (stereo not drawn) [BZM-7]
[1]; read-out: IC50
  IC50: 40 µM

## Cc1cnc(C[S+]([O-])c2nc3cc([N+](=O)[O-])ccc3[nH]2)c(C)c1OCC(F)(F)F (stereo not drawn) [BZM-9]
[2]
  IC50: 42 µM
